The results in this text go back to patent US20230339854A1, “Negative Allosteric Modulation of GluN3-Containing N-Methyl-D-Aspartate Receptors” (Emory University, priority 2020, published 2023).

The assay concerns the target T1, human GluN1^FA,TL/GluN3A receptors (Homo sapiens, UniProt Q8TCU5).
T1 construct: Human GluN3A (NP_597702.2) and rat GluN3B (NP_579842.2) were synthesized and subcloned into SP6 plasmids; expressed in transfected cells; host or cells: Xenopus laevis oocytes, cRNA injection (GluN1:GluN3 1:3)
The assay can be described thus: Two-electrode voltage-clamp recordings of GluN1^FA,TL/GluN3A receptors in Xenopus oocytes. The following applies: for remaining activity at 30 µM: read-out: hGluN1^FA,TL/hGluN3A (100 × Idrug/Icontrol at 30 μM drug); for IC50: hGluN1^FA,TL/hGluN3A, read-out: IC50. In kind it is cell-based. The text has this: cDNA encoding human wild-type (WT) GluN1-1a (GenBank accession numbers NP_015566, hereafter GluN1) and rat GluN1-1a (NP_058706.1) were synthesized and subcloned into pGEMHE plasmid; some experiments used the rat splice variant GluN1-4a (NP_001257531.1). Human GluN3A (NP_597702.2) and rat GluN3B (NP_579842.2) were synthesized and subcloned into SP6 plasmids. For most experiments, human GluN1 was co-expressed with human GluN3A, except for mutagenesis experiments where rat GluN1 was co-expressed with human GluN3A. Rat GluN1-4a was always expressed with rat GluN3B.
Defolliculated Xenopus laevis oocytes (stage V-VI) were obtained from Ecocyte BioScience (Austin, Texas), or prepared from commercially available Xenopus ovaries (Xenopus 1, Dexter, MI) as previously described (Hansen, et al., Mol. Pharmacol., 2013). A Drummond Nanoject II (Broomall, PA) was used to inject oocytes with cRNAs encoding GluN1 and GluN3 at a 1:3 ratio in RNase-free water. The cRNA was diluted as needed to give responses with amplitudes ranging between 200-2000 nA (0.2-10 ng total cRNA). Following cRNA injection, the oocytes were stored at 15-19° C. in Barth's solution that contained (in mM) 88 NaCl, 2.4 NaHCO3, 1 KCl, 0.33 Ca(NO3)2, 0.41 CaCl2), 0.82 MgSO4, and 5 Tris-HCl (pH 7.4 with NaOH), supplemented with 1 μg/ml streptomycin (Invitrogen, Carlsbad, CA) and 100 μg/ml gentamicin (Fisher Scientific, Pittsburgh, PA). Recordings were performed 2-5 days following cRNA microinjection at room temperature (23° C.) using a two-electrode voltage-clamp amplifier (OC725, Warner Instrument, Hamilton, CT). The signal was low-pass filtered at 10-20 Hz (4-pole, −3 dB Bessel) and digitized at the Nyquist rate using PCI-6025E or USB-6212 BNC data acquisition boards (National Instruments, Austin, TX) using EasyOocyte (http://www.easyoocyte.io/). Oocytes were placed in a custom-made chamber and continuously perfused (2.5 ml/min) with oocyte recording solution containing (in mM) 90 NaCl, 1 KCl, 10 HEPES, 0.5-1.0 BaCl2, and 0.01 EDTA (pH 7.4 with NaOH). Solutions were applied by gravity, and solution exchange was controlled through a rotary valve (Hamilton, Reno, NV). Recording electrodes were filled with 0.3-3.0 M KCl, and current responses were recorded at a holding potential of −40 mV.
Response (%)=(100−minimum)/(1+([concentration]/IC50)^nH)+minimum (2) • where nH is the Hill slope, IC50 is the concentration that produces a half-maximal effect, and minimum is the degree of residual inhibition at a saturating concentration of the negative allosteric modulator.
The afore-referenced compounds were screened in the same assay as EU1180-438 to determine their effects on hGluN1^FA,TL/hGluN3A receptors. Selected compounds that inhibited by more than 20% at the concentration at which they were initially evaluated (either 10 or 30 μM) were analyzed further, and a dose-response curve was generated to determine their IC50 values.

T1 sequence (Q8TCU5 24-1115, other chains not shown): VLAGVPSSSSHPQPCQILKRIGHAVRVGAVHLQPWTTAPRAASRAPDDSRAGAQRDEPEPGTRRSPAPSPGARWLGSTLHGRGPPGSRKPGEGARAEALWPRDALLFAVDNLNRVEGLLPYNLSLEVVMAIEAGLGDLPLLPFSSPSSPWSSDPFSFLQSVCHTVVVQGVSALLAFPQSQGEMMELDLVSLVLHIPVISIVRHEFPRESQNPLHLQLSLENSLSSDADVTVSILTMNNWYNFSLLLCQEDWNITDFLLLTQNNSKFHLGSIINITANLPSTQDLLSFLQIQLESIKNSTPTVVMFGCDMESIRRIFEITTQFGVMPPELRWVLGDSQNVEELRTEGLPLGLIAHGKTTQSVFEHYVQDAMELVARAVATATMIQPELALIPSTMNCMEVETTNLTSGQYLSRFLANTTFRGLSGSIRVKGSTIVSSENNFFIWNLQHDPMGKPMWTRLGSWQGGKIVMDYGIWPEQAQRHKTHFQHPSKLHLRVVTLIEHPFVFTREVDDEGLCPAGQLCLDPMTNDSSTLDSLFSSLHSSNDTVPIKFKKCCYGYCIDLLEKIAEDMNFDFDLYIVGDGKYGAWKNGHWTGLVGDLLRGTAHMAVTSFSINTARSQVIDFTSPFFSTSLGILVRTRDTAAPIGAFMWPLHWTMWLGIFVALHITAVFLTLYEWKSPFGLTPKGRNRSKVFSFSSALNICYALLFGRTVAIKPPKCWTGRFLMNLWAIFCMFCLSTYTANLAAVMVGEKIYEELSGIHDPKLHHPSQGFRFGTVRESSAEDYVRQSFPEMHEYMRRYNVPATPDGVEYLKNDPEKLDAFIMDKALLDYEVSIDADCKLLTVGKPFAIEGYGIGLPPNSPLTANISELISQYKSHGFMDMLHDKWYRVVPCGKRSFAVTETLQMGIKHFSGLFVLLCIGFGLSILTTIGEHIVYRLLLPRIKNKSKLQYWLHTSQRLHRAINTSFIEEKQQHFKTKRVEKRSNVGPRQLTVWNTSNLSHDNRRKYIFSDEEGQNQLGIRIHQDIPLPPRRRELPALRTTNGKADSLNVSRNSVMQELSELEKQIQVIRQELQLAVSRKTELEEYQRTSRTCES

On to `Cc1cccc(OCC(c2ccc(OC(C)C)cc2)N2Cc3ccc(Br)cc3C2=O)n1` (stereo not drawn) [EU1180-514, 6-bromo-2-(1-(4-isopropoxyphenyl)-2-((6-methylpyridin-2-yl)oxy)ethyl)isoindolin-1-one], for which the remaining activity at 30 µM is 93%.

Take `CCOc1ccc(OCC(c2ccc(OC(C)C)cc2)N2Cc3ccc(Cl)cc3C2=O)cc1` (stereo not drawn) [EU1180-588, 6-chloro-2-(2-(4-ethoxyphenoxy)-1-(4-isopropoxyphenyl)ethyl)isoindolin-1-one]: the remaining activity at 30 µM was 67%.

Take `COc1ccc(OCC(c2ccc(OC)c(OC)c2)N2Cc3cc(Br)ccc3C2=O)cc1` (stereo not drawn) [EU1180-526, 5-Bromo-2-(1-(3,4-dimethoxyphenyl)-2-(4-methoxyphenoxy)ethyl)isoindolin-1-one]: the remaining activity at 30 µM is 101%.

In the case of `COc1ccc(OCC(c2ccc(OC)c(OC)c2)N2Cc3ccc(C(F)(F)F)cc3C2=O)cc1` (stereo not drawn) [EU1180-523, 2-(1-(3,4-Dimethoxyphenyl)-2-(4-methoxyphenoxy)ethyl)-6-(trifluoromethyl)isoindolin-1-one], the remaining activity at 30 µM stood at 104%.

In the case of `CC(C)Oc1ccc(C(COc2ccc(OC(F)(F)F)cc2)N2Cc3cc(Cl)ccc3C2=O)cc1` (stereo not drawn) [EU1180-541, 5-chloro-2-(1-(4-isopropoxyphenyl)-2-(4-(trifluoromethoxy)phenoxy)ethyl)isoindolin-1-one], the remaining activity at 30 µM stood at 100%.

On to `CC(C)Oc1ccc(C(COc2ccc(C(F)(F)F)cc2)N2Cc3ccc(Br)cc3C2=O)cc1` (stereo not drawn) [EU1180-577, 6-bromo-2-(1-(4-isopropoxyphenyl)-2-(4-(trifluoromethyl)phenoxy)ethyl)isoindolin-1-one], for which the remaining activity at 30 µM turned out to be 108%.

Consider `COc1ccc(C(COc2cccc(C)n2)N2Cc3ccccc3C2=O)c(F)c1` (stereo not drawn) [EU1180-600, 2-(1-(2-Fluoro-4-methoxyphenyl)-2-((6-methylpyridin-2-yl)oxy)ethyl)isoindolin-1-one], for which the remaining activity at 30 µM was 87%.

For the compound `CCOc1ccc(OCC(c2ccc(OC(C)C)cc2)N2Cc3ccc(F)cc3C2=O)cc1` (stereo not drawn) [EU1180-590, 6-fluoro-2-(2-(4-ethoxyphenoxy)-1-(4-isopropoxyphenyl)ethyl)isoindolin-1-one], the concentration for half-maximal inhibition (IC50) (commonly the concentration needed to halve the response being measured) is 15.7 µM and the remaining activity at 30 µM stood at 35%.

`COc1ccc(C(COc2cccc(C)n2)N2Cc3cc(Cl)ccc3C2=O)c(F)c1` (stereo not drawn) [EU1180-604, 5-Chloro-2-(1-(2-fluoro-4-methoxyphenyl)-2-((6-methylpyridin-2-yl)oxy)ethyl)isoindolin-1-one]: the remaining activity at 30 µM stood at 81%.

On to `COc1ccc(OCC(c2c(F)cc(OC)cc2F)N2Cc3ccc(Cl)cc3C2=O)cc1` (stereo not drawn) [EU1180-548, 6-Chloro-2-(1-(2,6-difluoro-4-methoxyphenyl)-2-(4-methoxyphenoxy)ethyl)isoindolin-1-one], for which the remaining activity at 30 µM was determined as 90%.

For `COc1ccc(OCC(c2ccc(OC(C)C)cc2)N2Cc3cc(Cl)ccc3C2=O)cc1` (stereo not drawn) [EU1180-559, 5-chloro-2-(1-(4-isopropoxyphenyl)-2-(4-methoxyphenoxy)ethyl)isoindolin-1-one], the remaining activity at 30 µM worked out at 96%.

Take `COc1ccc(OCC(c2ccc(OC(C)C)cc2)N2Cc3ccc(F)cc3C2=O)cc1` (stereo not drawn) [EU1180-560, 6-fluoro-2-(1-(4-isopropoxyphenyl)-2-(4-methoxyphenoxy)ethyl)isoindolin-1-one]: the remaining activity at 30 µM is 23%.

For `COc1ccc(OCC(c2ccc(OC)c(OC)c2)N2Cc3cc(Cl)ccc3C2=O)cc1` (stereo not drawn) [EU1180-524, 5-Chloro-2-(1-(3,4-dimethoxyphenyl)-2-(4-methoxyphenoxy)ethyl)isoindolin-1-one], the remaining activity at 30 µM was determined as 102%.

In the case of `COc1ccc(OCC(c2ccc(OC)cc2F)N2Cc3ccc(Cl)cc3C2=O)cc1` (stereo not drawn) [EU1180-533, 6-Chloro-2-(1-(2-fluoro-4-methoxyphenyl)-2-(4-methoxyphenoxy)ethyl)isoindolin-1-one], the remaining activity at 30 µM was determined as 49%.

On to `Cc1cccc(OCC(c2ccc(OC(C)C)cc2)N2Cc3ccc(F)cc3C2=O)n1` (stereo not drawn) [EU1180-512, 6-fluoro-2-(1-(4-isopropoxyphenyl)-2-((6-methylpyridin-2-yl)oxy)ethyl)isoindolin-1-one], for which the remaining activity at 30 µM was determined as 36%.

With `CC(C)Oc1ccc(C(COc2ccc(C(F)(F)F)cc2)N2Cc3cc(F)ccc3C2=O)cc1` (stereo not drawn) [EU1180-576, 5-fluoro-2-(1-(4-isopropoxyphenyl)-2-(4-(trifluoromethyl)phenoxy)ethyl)isoindolin-1-one], the remaining activity at 30 µM amounted to 104%.

For `COc1ccc(OCC(c2ccc(OC)c(OC)c2)N2Cc3ccc(F)cc3C2=O)cc1` (stereo not drawn) [EU1180-529, 2-(1-(3,4-Dimethoxyphenyl)-2-(4-methoxyphenoxy)ethyl)-6-fluoroisoindolin-1-one], the remaining activity at 30 µM is 84%.

For the compound `COc1ccc(OCC(c2c(F)cc(OC)cc2F)N2Cc3ccc(F)cc3C2=O)cc1` (stereo not drawn) [EU1180-552, 2-(1-(2,6-Difluoro-4-methoxyphenyl)-2-(4-methoxyphenoxy)ethyl)-6-fluoroisoindolin-1-one], the remaining activity at 30 µM was 70%.

In the case of `CC(C)Oc1ccc(C(COc2ccc(OC(F)(F)F)cc2)N2Cc3cc(Br)ccc3C2=O)cc1` (stereo not drawn) [EU1180-554, 5-bromo-2-(1-(4-isopropoxyphenyl)-2-(4-(trifluoromethoxy)phenoxy)ethyl)isoindolin-1-one], the remaining activity at 30 µM is 101%.

Take `COc1ccc(OCC(c2ccc(OC(C)C)cc2)N2Cc3cc(Br)ccc3C2=O)cc1` (stereo not drawn) [EU1180-563, 5-bromo-2-(1-(4-isopropoxyphenyl)-2-(4-methoxyphenoxy)ethyl)isoindolin-1-one]: the remaining activity at 30 µM was 98%.

As for `COc1ccc(OCC(c2ccc(OC)cc2)N2Cc3ccc(Br)cc3C2=O)cc1` (stereo not drawn) [EU1180-520, 6-Bromo-2-(2-(4-methoxyphenoxy)-1-(4-methoxyphenyl)ethyl)isoindolin-1-one], the remaining activity at 30 µM was found to be 64%.

Consider `CC(C)Oc1ccc(C(COc2ccc(C(F)(F)F)cc2)N2Cc3cc(Br)ccc3C2=O)cc1` (stereo not drawn) [EU1180-578, 5-bromo-2-(1-(4-isopropoxyphenyl)-2-(4-(trifluoromethyl)phenoxy)ethyl)isoindolin-1-one], for which the remaining activity at 30 µM came out at 118%.

On to `COc1cc(F)c(C(COc2cccc(C)n2)N2Cc3ccc(Cl)cc3C2=O)c(F)c1` (stereo not drawn) [EU1180-611, 6-Chloro-2-(1-(2,6-difluoro-4-methoxyphenyl)-2-((6-methylpyridin-2-yl)oxy)ethyl)isoindolin-1-one], for which the IC50 stood at 63 µM and the remaining activity at 30 µM came out at 57%.

Consider `COc1ccc(OCC(c2ccc(OC)cc2F)N2Cc3ccc(F)cc3C2=O)cc1` (stereo not drawn) [EU1180-537, 6-Fluoro-2-(1-(2-fluoro-4-methoxyphenyl)-2-(4-methoxyphenoxy)ethyl)isoindolin-1-one], for which the remaining activity at 30 µM was found to be 66%.

For the compound `COc1ccc(OCC(c2ccc(OC)cc2F)N2Cc3cc(Cl)ccc3C2=O)cc1` (stereo not drawn) [EU1180-532, 5-Chloro-2-(1-(2-fluoro-4-methoxyphenyl)-2-(4-methoxyphenoxy)ethyl)isoindolin-1-one], the remaining activity at 30 µM is 95%.

In the case of `COc1ccc(C(COc2cccc(C)n2)N2Cc3cc(Br)ccc3C2=O)c(F)c1` (stereo not drawn) [EU1180-606, 5-Bromo-2-(1-(2-fluoro-4-methoxyphenyl)-2-((6-methylpyridin-2-yl)oxy)ethyl)isoindolin-1-on], the remaining activity at 30 µM stood at 66%.

For the compound `CC(C)Oc1ccc(C(COc2ccc(C(F)(F)F)cc2)N2Cc3ccc(C(F)(F)F)cc3C2=O)cc1` (stereo not drawn) [EU1180-572, 2-(1-(4-isopropoxyphenyl)-2-(4-(trifluoromethyl)phenoxy)ethyl)-6-(trifluoromethyl)isoindolin-1-one], the remaining activity at 30 µM amounted to 91%.

Consider `CCOc1ccc(OCC(c2ccc(OC(C)C)cc2)N2Cc3cc(Cl)ccc3C2=O)cc1` (stereo not drawn) [EU1180-589, 5-chloro-2-(2-(4-ethoxyphenoxy)-1-(4-isopropoxyphenyl)ethyl)isoindolin-1-one], for which the remaining activity at 30 µM is 87%.
